# Experimental data: patent US8871756B2 (Hoffmann-La Roche Inc., priority 2011, dated 2014)
# Test system: RSV Long strain
# Assay: Viral cytopathic effect (CPE) assay, anti-RSV activity
# Assay type: cell-based, Respiratory Syncytial Virus
# Settings: human respiratory syncytial virus, 144 h, RSV Long strain (ATCC); cell viability after 6 days, Cell Counting kit-8
# Description: Viral cytopathic effect (CPE) assay: To measure anti-RSV activity of compounds, 96-well plates are seeded with 6×10^3 cells per well in Dulbecco's modified Eagle's medium (DMEM) containing 10% fetal bovine serum (FBS). Cells are infected the next day with sufficient RSV Long strain (ATCC) to produce an approximately 80-90% cytopathic effect after 6 days, in the presence of serial half-log diluted compound in a total volume of 200 μL per well. The viability of cells is assessed after 6 days using Cell Counting kit-8 (Dojindo Molecular Technologies). The absorbance at 450 nm and referenced at 630 nm is measured to determine 50% effective concentration (EC50).
# The compounds of the present invention were tested for their anti-RSV activity, and the activation as described herein. The Examples were tested in the above assay and found to have EC50 of about 0.0001 μM to about 10 μM.
row,Structure (SMILES),EC50 [µM]
1,"Cc1ccc2nc(N3CC[S+]([O-])c4ccccc4C3)nc(N3C[C@@H](N)[C@H](F)C3)c2c1 (relative stereo) [Example 62-7, trans-4-Fluoro-1-[6-methyl-2-(1-oxido-2,3-dihydro-1,4-benzothiazepin-4(5H)-yl)quinazolin-4-yl]pyrrolidin-3-amine]",0.186
2,"NCC(F)(F)CNc1cc(N2CC[S+]([O-])c3ccccc3C2)nc2ccc(Cl)cc12 (centres unmarked) [Example 18-6, N-[6-Chloro-2-(1-oxido-2,3-dihydro-1,4-benzothiazepin-4(5H)-yl)quinolin-4-yl]-2,2-difluoropropane-1,3-diamine]",0.061
3,"Cc1ccc2nc(N3CCS(=O)(=O)c4ccccc4C3)cc(Nc3ccc(N)cc3)c2c1 [Example 15-2, N-[2-(1,1-Dioxido-2,3-dihydro-1,4-benzothiazepin-4(5H)-yl)-6-methylquinolin-4-yl]benzene-1,4-diamine]",7.99
4,"Cc1ccc2nc(N3CCS(=O)(=O)c4ccccc4C3)cc(S(=O)(=O)NCCN)c2c1 [Example 103, N-(2-Aminoethyl)-2-(1,1-dioxido-2,3-dihydro-1,4-benzothiazepin-4(5H)-yl)-6-methylquinoline-4-sulfonamide]",0.202
5,"CCC(N)C(=O)Nc1cc(N2CCS(=O)(=O)c3ccccc3C2)nc2ccc(C)cc12 (centres unmarked) [Example 40-4, 2-Amino-N-[2-(1,1-dioxido-2,3-dihydro-1,4-benzothiazepin-4(5H)-yl)-6-methylquinolin-4-yl]butanamide]",2.65
6,"Cc1ccc2nc(N3CCS(=O)(=O)c4ccccc4C3)cc(N[C@H]3CC[C@H](O)CC3)c2c1 [Example 8-1, trans-4-{[2-(1,1-Dioxido-2,3-dihydro-1,4-benzothiazepin-4(5H)-yl)-6-methylquinolin-4-yl]amino}cyclohexanol]",5.51
7,"Cc1ccc2nc(N3CCS(=O)(=O)c4ccccc4C3)cc(NC[C@@H](C)N)c2c1 [Example 5-9, (2R)—N˜1˜-[2-(1,1-Dioxido-2,3-dihydro-1,4-benzothiazepin-4(5H)-yl)-6-methylquinolin-4-yl]propane-1,2-diamine]",0.018
8,"Cc1ccc2nc(N3Cc4ccccc4S(=O)(=O)C(C)C3)cc(NCC3(N)COC3)c2c1 (centres unmarked) [Example 69-2, N-[(3-Aminooxetan-3-yl)methyl]-6-methyl-2-(2-methyl-1,1-dioxido-2,3-dihydro-1,4-benzothiazepin-4(5H)-yl)quinolin-4-amine]",0.007
9,"Cc1ccc2nc(N3CC[S+]([O-])c4ccccc4C3)nc(NC3(CN)COC3)c2c1 (centres unmarked) [Example 91, N-[3-(Aminomethyl)oxetan-3-yl]-6-methyl-2-(1-oxido-2,3-dihydro-1,4-benzothiazepin-4(5H)-yl)quinazolin-4-amine]",0.004
10,"Cc1ccc2nc(N3CCS(=O)(=O)c4ccccc4C3)cc(NC3(CN)COC3)c2c1 [Example 71, N-[3-(Aminomethyl)oxetan-3-yl]-2-(1,1-dioxido-2,3-dihydro-1,4-benzothiazepin-4(5H)-yl)-6-methylquinolin-4-amine]",0.005
11,"Cc1ccc2nc(N3CCS(=O)(=O)c4ccccc4C3)cc(NCCN3CCCCC3)c2c1 [Example 9-6, 2-(1,1-Dioxido-2,3-dihydro-1,4-benzothiazepin-4(5H)-yl)-6-methyl-N-[2-(piperidin-1-yl)ethyl]quinolin-4-amine]",0.275
12,"NC1(CNc2cc(N3CCS(=O)(=O)c4ccccc4C3)nc3ccncc23)COC1 [Example 2-10, N-[(3-Aminooxetan-3-yl)methyl]-2-(1,1-dioxido-2,3-dihydro-1,4-benzothiazepin-4(5H)-yl)-1,6-naphthyridin-4-amine]",0.005
13,"Cc1ccc2nc(N3CCSc4ccccc4C3)nc(NCC3(CN)COC3)c2c1 [Example 62-6, N-{[3-(Aminomethyl)oxetan-3-yl]methyl}-2-(2,3-dihydro-1,4-benzothiazepin-4(5H)-yl)-6-methylquinazolin-4-amine]",0.006
14,"NCCCNc1cc(N2CCS(=O)(=O)c3ccccc3C2)nc2ccc(O)cc12 [Example 29, 4-[(3-Aminopropyl)amino]-2-(1,1-dioxido-2,3-dihydro-1,4-benzothiazepin-4(5H)-yl)quinolin-6-ol]",0.042
